ChEMBL document CHEMBL4330100, “Selective estrogen receptor degraders with novel structural motifs induce regression in a tamoxifen-resistant breast cancer xenograft” (Bioorg Med Chem Lett, 2019)
Calls of active or inactive are those of the source. No cut-off for these calls is given here.

Legend:
Rattus norvegicus [1] = test: In vivo antagonist activity at estrogen receptor in CD-IGS rat assessed as reduction in 17alpha-ethynylestradiol-stimulated increase in uterine wet weight at 1 mg/kg, po administered daily 15 mins before 17alpha-ethynylestradiol treatment for 3 days and measured 24 hrs post last dose relative to basal level; format: functional
MCF7 = test: Antiproliferative activity against human MCF7 cells assessed as reduction in cell proliferation measured after 5 days by Cell-titer-Glo assay; format: functional, cell-based; details: MCF7, 120 h
Estrogen receptor = biological target: T1, Estrogen receptor (Homo sapiens, UniProt P03372); test: Induction of ERalpha degradation in human MCF7 cells in phenol red free RPMI medium containing 5% charcoal-stripped FBS incubated for 4 hrs by IRDye 800CW/DRAQ5 dye based in-cell Western assay
T1 sequence (P03372 whole entry): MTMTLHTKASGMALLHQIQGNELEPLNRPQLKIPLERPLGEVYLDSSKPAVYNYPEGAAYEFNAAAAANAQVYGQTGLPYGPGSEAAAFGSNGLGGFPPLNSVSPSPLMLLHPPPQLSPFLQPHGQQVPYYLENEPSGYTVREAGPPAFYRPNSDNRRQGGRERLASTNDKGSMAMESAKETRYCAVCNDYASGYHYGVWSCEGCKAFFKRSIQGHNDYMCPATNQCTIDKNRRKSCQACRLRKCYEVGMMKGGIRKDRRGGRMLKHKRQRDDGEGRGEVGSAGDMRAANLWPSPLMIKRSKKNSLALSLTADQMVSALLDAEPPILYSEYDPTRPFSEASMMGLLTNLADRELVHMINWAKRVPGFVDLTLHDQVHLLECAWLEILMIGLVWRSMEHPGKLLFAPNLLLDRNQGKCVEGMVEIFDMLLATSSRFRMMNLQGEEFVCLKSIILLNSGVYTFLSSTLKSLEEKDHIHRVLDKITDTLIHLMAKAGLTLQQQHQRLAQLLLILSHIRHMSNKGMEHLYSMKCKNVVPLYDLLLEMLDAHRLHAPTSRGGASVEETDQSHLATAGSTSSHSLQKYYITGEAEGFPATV

Rattus norvegicus [2] = test: In vivo antagonist activity at estrogen receptor in CD-IGS rat assessed as inhibition of estrogen-stimulated uterine growth at 1 mg/kg, po administered daily 15 mins before estrogen treatment for 3 days and measured 24 hrs post last dose relative to ARN-180; format: functional
[3] = Oral bioavailability in CD-1 mouse at 10 mg/kg; format: ADME, organism-based; details: in vivo; for bioavailability: CD-1, mouse
[4] = Fraction unbound in 10% CD-1 mouse plasma at 10 uM measured after 20 to 24 hrs by equlibrium dialysis method; format: ADME, cell-free; details: 10% plasma
[5] = Volume of distribution at steady state in CD-1 mouse at 3 mg/kg, iv; format: ADME, organism-based; details: in vivo; for Vd: CD-1, mouse, read-out: Vdss
[6] = AUC in CD-1 mouse at 10 mg/kg, po; format: ADME, organism-based; details: in vivo
[7] = Half life in CD-1 mouse at 3 mg/kg, iv; format: ADME, organism-based; details: in vivo; for half-life: CD-1, mouse
Homo sapiens = test: Antitumor activity against human TamR1 cells xenografted in nu/nu mouse assessed as tumor regression at 30 mg/kg, po administered daily for 4 weeks; format: functional, organism-based
[8] = Plasma clearance in CD-1 mouse at 3 mg/kg, iv; format: ADME, organism-based
[9] = Volume of distribution at steady state in CD-1 mouse at 2 mg/kg, iv administered as cassette dose; format: ADME, organism-based; details: in vivo, read-out: Vdss
[10] = AUC in CD-1 mouse at 10 mg/kg, po administered at truncated timecourse (1, 4, 24 hrs); format: ADME, organism-based; details: in vivo
[11] = Half life in CD-1 mouse at 2 mg/kg, iv administered as cassette dose; format: ADME, organism-based; details: in vivo
[12] = Plasma clearance in CD-1 mouse at 2 mg/kg, iv administered as cassette dose; format: ADME, organism-based
[13] = Oral bioavailability in CD-1 mouse at 10 mg/kg administered at truncated timecourse (1, 4, 24 hrs); format: ADME, organism-based; details: in vivo

Compound: N#Cc1cc(Cl)ccc1/C(=C(\c1ccc(/C=C/C(=O)O)cc1)c1ccc(-c2cn[nH]c2)cc1)C1CCC1
- Efficacy (Rattus norvegicus [1]): 94%
- IC50 (MCF7): 4.4 nM
- EC50 (Estrogen receptor): 1.1 nM

Compound: O=C(O)/C=C/c1ccc(/C(=C(\c2ccc(C(F)(F)F)cc2Cl)C2CCC2)c2ccc3scnc3c2)cc1
- Efficacy (Rattus norvegicus [1]): 93%
- IC50 (MCF7): 2.6 nM
- EC50 (Estrogen receptor): 1 nM

Compound: COc1ccc(/C(=C(\c2ccc(/C=C/C(=O)O)cc2)c2ccc3scnc3c2)C2CCC2)c(Cl)c1
- Efficacy (Rattus norvegicus [2]): 94%
- bioavailability [3]: 80%
- fraction unbound at 10 µM [4]: 0.002
- IC50 (MCF7): 0.9 nM
- Vd [5]: 0.3 L/kg
- AUC ([6]; CD-1, mouse, read-out: AUC): 75000 ng·h/mL
- half-life [7]: 3.2 h
- Activity (Homo sapiens): Active
- EC50 (Estrogen receptor): 0.4 nM
- clearance [8]: 1.8 mL/min/kg

Compound: COc1ccc(/C(=C(\c2ccc(/C=C/C(=O)O)cc2)c2ccc3nccn3c2)C2CCC2)c(Cl)c1
- Efficacy (Rattus norvegicus [2]): 93%
- F ([3]; mouse): 69%
- fraction unbound at 10 µM [4]: 0.015
- IC50 (MCF7): 0.7 nM
- Vdss ([5]; mouse): 0.9 L/kg
- AUC ([6]; mouse): 8400 ng·h/mL
- t1/2 ([7]; mouse): 1.2 h
- Activity (Homo sapiens): inactive
- EC50 (Estrogen receptor): 0.3 nM

Compound: CC/C(=C(/c1ccc(/C=C/C(=O)O)cc1)c1ccc2[nH]ncc2c1)c1ccc(F)cc1Cl [BRILANESTRANT]
- fraction unbound at 10 µM [4]: 0.011
- half-life [7]: 4.6 h

Compound: N#Cc1cc(Cl)ccc1/C(=C(\c1ccc(/C=C/C(=O)O)cc1)c1ccc(-c2cncs2)cc1)C1CCC1
- Efficacy (Rattus norvegicus [1]): 94%
- IC50 (MCF7): 4.3 nM
- EC50 (Estrogen receptor): 1.9 nM

Compound: N#Cc1ccc(/C(=C(\c2ccc(/C=C/C(=O)O)cc2)c2ccc(-c3cn[nH]c3)cc2)C2CCC2)c(Cl)c1
- Efficacy (Rattus norvegicus [1]): 94%
- IC50 (MCF7): 2.2 nM
- EC50 (Estrogen receptor): 0.7 nM

Compound: O=C(O)/C=C/c1ccc(/C(=C(\c2ccc(F)cc2Cl)C2CCC2)c2ccc3nccn3c2)cc1
- Efficacy (Rattus norvegicus [1]): 90%
- IC50 (MCF7): 4.4 nM
- EC50 (Estrogen receptor): 1.5 nM

Compound: O=C(O)/C=C/c1ccc(/C(=C(\c2ccccc2)C2CCC2)c2ccc(-c3cncs3)cc2)cc1
- Efficacy (Rattus norvegicus [1]): 89%
- IC50 (MCF7): 9.2 nM
- EC50 (Estrogen receptor): 1.7 nM

Compound: COc1ccc(/C(=C(\c2ccc(/C=C/C(=O)O)cc2)c2ccc(-c3cn[nH]c3)cc2)C2CCC2)c(Cl)c1
- Efficacy (Rattus norvegicus [2]): 93%
- fraction unbound at 10 µM [4]: 0.002
- IC50 (MCF7): 5.1 nM
- Vd [9]: 0.6 L/kg
- AUC at 24 h [10]: 18000 ng·h/mL
- half-life [11]: 3 h
- EC50 (Estrogen receptor): 1.5 nM
- clearance [12]: 4.8 mL/min/kg
- bioavailability [13]: 52%

Compound: COc1ccc(/C(=C(\c2ccc(/C=C/C(=O)O)cc2)c2ccc(-c3cncs3)cc2)C2CCC2)c(Cl)c1
- Efficacy (Rattus norvegicus [2]): 93%
- fraction unbound at 10 µM [4]: 0.001
- IC50 (MCF7): 1.8 nM
- AUC at 24 h [10]: 3800 ng·h/mL
- EC50 (Estrogen receptor): 0.8 nM

Compound: O=C(O)/C=C/c1ccc(/C(=C(\c2ccc(C(F)(F)F)cc2Cl)C2CCC2)c2ccc(N3CCOCC3)cc2)cc1
- Efficacy (Rattus norvegicus [1]): 93%
- IC50 (MCF7): 6.9 nM
- EC50 (Estrogen receptor): 1.9 nM

Compound: COc1ccc(/C(=C(\c2ccc(/C=C/C(=O)O)cc2)c2ccc(N3CCOCC3)cc2)C2CCC2)c(Cl)c1
- Efficacy (Rattus norvegicus [2]): 92%
- bioavailability [3]: > 100%
- fraction unbound at 10 µM [4]: 0.004
- IC50 (MCF7): 2.1 nM
- Vd [5]: 1.5 L/kg
- AUC ([6]; CD-1, mouse, read-out: AUC): 40000 ng·h/mL
- half-life [7]: 2.9 h
- Activity (Homo sapiens): Active
- EC50 (Estrogen receptor): 0.6 nM
- clearance [8]: 5.1 mL/min/kg

Compound: N#Cc1cc(Cl)ccc1/C(=C(\c1ccc(/C=C/C(=O)O)cc1)c1ccc2scnc2c1)C1CCC1
- Efficacy (Rattus norvegicus [2]): 91%
- IC50 (MCF7): 0.9 nM
- EC50 (Estrogen receptor): 0.4 nM

Compound: N#Cc1ccc(/C(=C(\c2ccc(/C=C/C(=O)O)cc2)c2ccc3scnc3c2)C2CCC2)c(Cl)c1
- Efficacy (Rattus norvegicus [2]): 92%
- IC50 (MCF7): 1.4 nM
- EC50 (Estrogen receptor): 0.8 nM

Compound: O=C(O)/C=C/c1ccc(/C(=C(\c2ncc(C(F)(F)F)cc2Cl)C2CCC2)c2ccc3scnc3c2)cc1
- Efficacy (Rattus norvegicus [2]): 92%
- IC50 (MCF7): 2.9 nM
- EC50 (Estrogen receptor): 1.1 nM
